Publication PMC3109911 (The Journal of neuroscience : the official journal of the …, 2011)
Structures can show the parent of a compound that is named as a salt.

Columns and labels:
[1] = test system: Schaffer-CA1 synaptic transmission in dorsal hippocampal slices; test: Field EPSP recordings from dorsal hippocampal slices; settings: SKF 38393 20 nM, n=3
[2] = test system: Schaffer-CA1 synaptic transmission in rat ventral hippocampal slices; test: Field EPSP recordings from ventral hippocampal slices
[3] = test system: D1 receptors; test: ERK1/2 phosphorylation in transfected CHO cells expressing D1 receptors
[4] = test system: D5 receptors; test: ERK1/2 phosphorylation in transfected CHO cells expressing D5 receptors
[5] = test system: D1-like receptors; settings: ref Hersi et al., 1995; cited from earlier work
[6] = test system: galanin receptor; settings: ref Lang et al., 2007; cited from earlier work
[7] = test system: galanin receptor; settings: ref Lang et al., 2007; cited from earlier work; remark: listed apart in the source

## Oc1cc2c(cc1O)C(c1ccccc1)CNCC2 (racemic) [SKF 38393, (±)-1-Phenyl-2,3,4,5-tetrahydro-(1H)-3-benzazepine-7,8-diol hydrobromide]
[1]
  effect on fEPSP slope: devoid of any effect on fEPSP slope
[2]; SKF 38393 20 nM after atropine (5 µM, at least 30 min before)
  effect on synaptic transmission (fEPSP): did not significantly affect synaptic transmission
[2]; SKF 38393 20 nM alone, n=7
  effect on the slope of fEPSP: virtually devoid of effect

## Br.Oc1cc2c(c(Cl)c1O)CCNCC2c1ccccc1 (racemic) [SKF 81297]
[3]; SKF 81297 (text 50 nM; Fig. 4 legend 70 nM), cells expressing D1
  ERK1/2 phosphorylation, time course: time-dependently induced ERK1/2 phosphorylation
[4]; SKF 81297 50 nM, cells expressing D5
  ERK1/2 phosphorylation, time course: time-dependently induced ERK1/2 phosphorylation

## CN1[C@@H]2CC[C@H]1C[C@@H](OC(=O)C(CO)c1ccccc1)C2 (some centres unmarked) [atropine]
[2]; atropine 5 µM by itself
  effect on fEPSP: did not significantly modify fEPSP

## NCCc1ccc(O)c(O)c1 [dopamine]
[5]
  effect on hippocampal ACh release: facilitates hippocampal ACh release by acting on D1-like receptors

## galanin (1–13)-Pro-Pro-(Ala-Leu-)2Ala amide [M40]
[6]
  agonism in cell lines: full agonists in some cell lines
[7]
  antagonism in vivo: clearly antagonists in vivo
[3]; antagonist 10 µM, 20 min prior, SKF 81297 70 nM, 5 min, cells only expressing D1
  antagonism of SKF 81297-induced ERK1/2 phosphorylation: not modified by the presence of M40
[4]; antagonist 10 µM, 20 min prior, SKF 81297 70 nM, 5 min, cells only expressing D5
  antagonism of SKF 81297-induced ERK1/2 phosphorylation: not modified by the presence of M40
